Experimental data reported in patent US20240041042A1, “1-(PYRIDYL)-5-AZINYLPYRAZOLE DERIVATIVES, AND THEIR USE FOR CONTROL OF UNDESIRED PLANT GROWTH” (Bayer Aktiengesellschaft, priority 2020, published 2024).
Read-outs that look alike come from different tables or passages of the source. Blank lines part the entries; values can stand above or below the molecule they belong to.

How the values were obtained:
Assay type in all cases: in vivo
[1] = system: Alopecurus myosuroides (ALOMY); experiment: Pre-emergence herbicidal action against ALOMY; conditions: 320 g/ha; scored visually after about 3 weeks; 100% = plants have died
Method in brief: (§1)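 Pre-emergence soil-surface spray of compound, formulated as wettable powder or emulsion concentrate, in aqueous suspension or emulsion with 0.5% additive (600 l/ha; rate 320 g/ha or less). Activity rated visually after roughly 3 weeks in the greenhouse as a percentage of untreated controls, 0% meaning no difference.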

[2] = system: Amaranthus retroflexus (AMARE); experiment: Pre-emergence herbicidal action against AMARE; conditions: visual scoring after about 3 weeks vs untreated controls
Method in brief: as §1

Lolium rigidum (LOLRI) [3] = experiment: Pre-emergence herbicidal action against LOLRI; conditions: dosage 320 g/ha
Method in brief: as §1

[4] = system: Polygonum convolvulus (POLCO); experiment: Pre-emergence herbicidal action against POLCO; conditions: dosage 320 g/ha
Method in brief: as §1

Setaria viridis (SETVI) [5] = experiment: Pre-emergence herbicidal action against SETVI; conditions: dosage 320 g/ha
Method in brief: as §1

Viola tricolor (VIOTR) [6] = experiment: Pre-emergence herbicidal action against VIOTR
Method in brief: as §1

Oryza sativa (ORYSA) [7] = conditions: pre-emergence, crop plant compatibility, in comparison to untreated controls
Method in brief: (§2)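 Scoring: visual, % of untreated control, about 3 weeks after a pre-emergence application to the soil surface. Application used WP or EC formulations diluted in water with 0.5% additive at 600 l/ha; dosage levels are marked by suffixes a, b and c.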

Zea mays (ZEAMX) [8] = conditions: pre-emergence, crop plant compatibility, in comparison to untreated controls
Method in brief: as §2

[9] = system: Alopecurus myosuroides (ALOMY); experiment: Post-emergence herbicidal action against ALOMY; conditions: 320 g/ha, visual rating about 3 weeks after treatment vs untreated controls (100% = plants have died, 0% = like control plants)
Method in brief: (§3)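 Greenhouse plants sprayed at the one-leaf stage, 2–3 weeks after sowing, with WP or EC formulations plus 0.5% additive at 600 l/ha water. Activity rated visually after about 3 weeks versus untreated controls (100% = dead, 0% = like control), at 320 g/ha or lower.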

[10] = system: Echinochloa crus-galli (ECHCG); experiment: Post-emergence herbicidal action against ECHCG; conditions: dosage 320 g/ha
Method in brief: as §3

Lolium rigidum (LOLRI) [11] = experiment: Post-emergence herbicidal action against LOLRI; conditions: dosage 320 g/ha
Method in brief: as §3

[12] = system: Pharbitis purpurea (PHBPU); experiment: Post-emergence herbicidal action against PHBPU; conditions: dosage 320 g/ha
Method in brief: as §3

Setaria viridis (SETVI) [13] = experiment: Post-emergence herbicidal action against SETVI; conditions: dosage 320 g/ha
Method in brief: as §3

Viola tricolor (VIOTR) [14] = experiment: Post-emergence herbicidal action against VIOTR
Method in brief: as §3

Oryza sativa (ORYSA) [15] = conditions: crop plant compatibility, 80 g/ha, effect in comparison to untreated controls
Method in brief: (§4)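 Percent effect on the crop was judged by eye against untreated controls, where 0% means like control and 100% means dead plants. Plants had been sprayed post-emergence at the one-leaf stage and then kept under optimum greenhouse conditions for about 3 weeks.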

Zea mays (ZEAMX) [16] = conditions: crop plant compatibility, 80 g/ha, effect vs untreated controls
Method in brief: as §4

Avena fatua (AVEFA) [17] = experiment: Pre-emergence herbicidal action against AVEFA; conditions: 320 g/ha, visual scoring after about 3 weeks vs untreated controls
Method in brief: as §1

[18] = system: Matricaria inodora (MATIN); experiment: Pre-emergence herbicidal action against MATIN; conditions: dosage 320 g/ha
Method in brief: as §1

[19] = system: Verconica persica (VERPE); experiment: Pre-emergence herbicidal action against VERPE; conditions: dosage 320 g/ha
Method in brief: as §1

[20] = system: Abutilon theophrasti (ABUTH); experiment: Post-emergence herbicidal action against ABUTH; conditions: visual rating about 3 weeks after treatment vs untreated controls (100% = plants have died, 0% = like control plants)
Method in brief: as §3

[21] = system: Amaranthus retroflexus (AMARE); experiment: Post-emergence herbicidal action against AMARE
Method in brief: as §3

Avena fatua (AVEFA) [22] = experiment: Post-emergence herbicidal action against AVEFA; conditions: visual rating about 3 weeks after treatment
Method in brief: as §3

[23] = system: Matricaria inodora (MATIN); experiment: Post-emergence herbicidal action against MATIN; conditions: dosage 320 g/ha
Method in brief: as §3

[24] = system: Polygonum convolvulus (POLCO); experiment: Post-emergence herbicidal action against POLCO
Method in brief: as §3

[25] = system: Verconica persica (VERPE); experiment: Post-emergence herbicidal action against VERPE
Method in brief: as §3

- Pre-emergence action against ORYSA in % (Oryza sativa (ORYSA) [7]; 80 g/ha): 20%
- Pre-emergence action against ZEAMX in % (Zea mays (ZEAMX) [8]; 80 g/ha): 0%
- Post-emergence action against ORYSA in % (Oryza sativa (ORYSA) [15]): 10%
- Post-emergence action against ZEAMX in % (Zea mays (ZEAMX) [16]): 0%
Compound: COCCOC(=O)COc1nn(-c2ncccc2C(F)(F)F)c(-c2ccc(F)nc2)c1Cl [Example I-362]
- Pre-emergence action against ALOMY [1]: 100%
- Pre-emergence action against AMARE in % ([2]; 320 g/ha): 90%
- Pre-emergence action against LOLRI in % (Lolium rigidum (LOLRI) [3]): 100%
- Pre-emergence action against POLCO in % [4]: 80%
- Pre-emergence action against SETVI in % (Setaria viridis (SETVI) [5]): 80%
- Pre-emergence action against VIOTR in % (Viola tricolor (VIOTR) [6]; 320 g/ha, Viola tricolor): 100%
- Post-emergence action against ALOMY in % [9]: 90%
- Post-emergence action against ECHCG in % [10]: 80%
- Post-emergence action against LOLRI in % (Lolium rigidum (LOLRI) [11]): 80%
- Post-emergence action against PHBPU in % [12]: 80%
- Post-emergence action against SETVI in % (Setaria viridis (SETVI) [13]): 80%
- Post-emergence action against VIOTR in % (Viola tricolor (VIOTR) [14]; 80 g/ha): 80%
- Post-emergence action against VIOTR in % (Viola tricolor (VIOTR) [14]; 320 g/ha): 80%

- Pre-emergence action against ORYSA in % (Oryza sativa (ORYSA) [7]; 80 g/ha): 0%
- Pre-emergence action against ORYSA in % (Oryza sativa (ORYSA) [7]; 320 g/ha): 0%
- Pre-emergence action against ZEAMX in % (Zea mays (ZEAMX) [8]; 80 g/ha): 0%
- Pre-emergence action against ZEAMX in % (Zea mays (ZEAMX) [8]; 320 g/ha): 0%
- Post-emergence action against ORYSA in % (Oryza sativa (ORYSA) [15]): 0%
Compound: CSCCOC(=O)COc1nn(-c2ccccn2)c(-c2ccc(F)nc2)c1Br [Example I-95]
- Pre-emergence action against ALOMY [1]: 80%
- Pre-emergence action against AMARE in % ([2]; 80 g/ha): 90%
- Pre-emergence action against AMARE in % ([2]; 320 g/ha): 100%
- Pre-emergence action against AVEFA in % (Avena fatua (AVEFA) [17]): 80%
- Pre-emergence action against MATIN in % [18]: 80%
- Pre-emergence action against POLCO in % [4]: 90%
- Pre-emergence action against SETVI in % (Setaria viridis (SETVI) [5]): 100%
- Pre-emergence action against VERPE in % [19]: 100%
- Pre-emergence action against VIOTR in % (Viola tricolor (VIOTR) [6]; 320 g/ha, Viola tricolor): 100%
- Pre-emergence action against VIOTR in % (Viola tricolor (VIOTR) [6]; dosage 80 g/ha): 100%
- Post-emergence action against ABUTH in % ([20]; 80 g/ha): 80%
- Post-emergence action against ABUTH in % ([20]; 320 g/ha): 80%
- Post-emergence action against ALOMY in % [9]: 100%
- Post-emergence action against AMARE in % ([21]; 80 g/ha, visual rating about 3 weeks after treatment vs untreated controls (100% = plants have died, 0% = like control plants)): 80%
- Post-emergence action against AMARE in % ([21]; 320 g/ha, visual rating about 3 weeks after treatment): 90%
- Post-emergence action against AVEFA in % (Avena fatua (AVEFA) [22]; 80 g/ha): 80%
- Post-emergence action against AVEFA in % (Avena fatua (AVEFA) [22]; 320 g/ha): 80%
- Post-emergence action against ECHCG in % [10]: 90%
- Post-emergence action against LOLRI in % (Lolium rigidum (LOLRI) [11]): 80%
- Post-emergence action against MATIN in % [23]: 80%
- Post-emergence action against POLCO in % ([24]; dosage 80 g/ha): 80%
- Post-emergence action against POLCO in % ([24]; dosage 320 g/ha): 80%
- Post-emergence action against SETVI in % (Setaria viridis (SETVI) [13]): 90%
- Post-emergence action against VERPE in % ([25]; 320 g/ha, VERPE): 80%
- Post-emergence action against VERPE in % ([25]; dosage 80 g/ha): 80%
- Post-emergence action against VIOTR in % (Viola tricolor (VIOTR) [14]; 320 g/ha): 80%
